The source made the active and inactive calls. The calls are words filed in the database; no cut-off is given here.
Tests used:
HCT-116 [1] = assay: Cytotoxicity against human HCT116 cells assessed as inhibition of cell growth; format: functional, cell-based
[2] = Selectivity index, ratio of IC50 for human CRL1790 cells assessed as inhibition of cell growth to IC50 for human HCT116 cells assessed as inhibition of cell growth; format: toxicity; conditions: CRL1790 cells versus HCT116 cells, read-out: Ratio IC50
CCD-841CoN = assay: Cytotoxicity against human CRL1790 cells assessed as inhibition of cell growth; format: cell-based
HCT-116 [3] = assay: Induction of mitochondrial membrane potential loss in human HCT116 cells at IC50; format: functional, cell-based
HCT-116 [4] = assay: Induction of ROS generation in human HCT116 cells assessed as increase in ROS level at 2 times IC50; format: functional, cell-based
HCT-116 [5] = assay: Induction of mitochondrial membrane potential loss in human HCT116 cells at 2 times IC50; format: functional, cell-based
HCT-116 [6] = assay: Induction of ROS generation in human HCT116 cells assessed as increase in ROS level at IC50; format: functional, cell-based
HCT-116 [7] = assay: Cell cycle arrest in human HCT116 cells assessed as accumulation at G0/G1 phase at 10.96 uM (reference value: 0.28 %); format: functional
HCT-116 [8] = assay: Cell cycle arrest in human HCT116 cells assessed as accumulation at G2/M phase at 0.28 uM (reference value: 29.4 %); format: functional
HCT-116 [9] = assay: Cell cycle arrest in human HCT116 cells assessed as accumulation of diploid cells at 0.28 uM (reference value: 2.5 %); format: functional
HCT-116 [10] = assay: Cell cycle arrest in human HCT116 cells assessed as accumulation at S phase at 0.28 uM (reference value: 18.4 %); format: functional
HCT-116 [11] = assay: Induction of apoptosis in human HCT116 cells assessed as apoptotic cells at 0.28 uM (reference value: 2.4 %); format: functional
HCT-116 [12] = assay: Induction of apoptosis in human HCT116 cells assessed as apoptotic cells at 0.03 uM (reference value: 2.4 %); format: functional
HCT-116 [13] = assay: Potency index, ratio of 5-fluorouracil IC50 to test compound IC50 for human HCT116 cells assessed as inhibition of cell growth; format: functional
HCT-116 [14] = assay: Cell cycle arrest in human HCT116 cells assessed as accumulation at G0/G1 phase at 0.03 uM (reference value: 46.8 %); format: functional
HCT-116 [15] = assay: Cell cycle arrest in human HCT116 cells assessed as accumulation of diploid cells at 0.03 uM (reference value: 2.5 %); format: functional
HCT-116 [16] = assay: Cell cycle arrest in human HCT116 cells assessed as accumulation at G2/M phase at 0.03 uM (reference value: 29.4 %); format: functional
HCT-116 [17] = assay: Cell cycle arrest in human HCT116 cells assessed as accumulation at S phase at 0.03 uM (reference value: 18.4 %); format: functional
HCT-116 [18] = assay: Cell cycle arrest in human HCT116 cells assessed as accumulation at S phase at 0.23 uM (reference value: 18.4 %); format: functional
[19] = Stability of compound in mixture of DMSO and phosphate buffer at 37 degree C incubated for 48 hrs by H-NMR spectroscopy; format: physicochemical
HCT-116 [20] = assay: Cell cycle arrest in human HCT116 cells assessed as accumulation at G0/G1 phase at 0.23 uM (reference value: 46.8 %); format: functional
HCT-116 [21] = assay: Cell cycle arrest in human HCT116 cells assessed as accumulation of diploid cells at 0.23 uM (reference value: 2.5 %); format: functional
HCT-116 [22] = assay: Cell cycle arrest in human HCT116 cells assessed as accumulation at G2/M phase at 0.23 uM (reference value: 29.4 %); format: functional
HCT-116 [23] = assay: Induction of apoptosis in human HCT116 cells assessed as apoptotic cells at 0.23 uM (reference value: 2.4 %); format: functional
HCT-116 [24] = assay: Induction of apoptosis in human HCT116 cells assessed as apoptotic cells at 10.96 uM (reference value: 2.4 %); format: functional
HCT-116 [25] = assay: Cell cycle arrest in human HCT116 cells assessed as accumulation at S phase at 10.96 uM (reference value: 18.4 %); format: functional
HCT-116 [26] = assay: Cell cycle arrest in human HCT116 cells assessed as accumulation at G0/G1 phase at 10.96 uM (reference value: 46.8 %); format: functional
HCT-116 [27] = assay: Cell cycle arrest in human HCT116 cells assessed as accumulation at G2/M phase at 10.96 uM (reference value: 29.4 %); format: functional
HCT-116 [28] = assay: Cell cycle arrest in human HCT116 cells assessed as accumulation of diploid cells at 10.96 uM (reference value: 2.5 %); format: functional

SMILES | IC50 (HCT-116 [1]) [µM] | selectivity ratio [2] | IC50 (CCD-841CoN) [µM] | also measured
O=C1/C(=C/c2cccc(F)c2)CN(C(=O)C(Cl)Cl)C/C1=C\c1cccc(F)c1 | 0.11 | 135 | 14.8 | 
CC(C)(C)C(=O)N1C/C(=C\c2ccc(OC(=O)C(Cl)Cl)cc2)C(=O)/C(=C/c2ccc(OC(=O)C(Cl)Cl)cc2)C1 | 0.23 | 71.3 | 16.4 | 
O=c1[nH]cc(F)c(=O)[nH]1 [FLUOROURACIL] | 4.02 | 4.65 | 18.7 | Activity (HCT-116 [3]): Active; Activity (HCT-116 [4]): Active; Activity (HCT-116 [5]): Active; Activity (HCT-116 [6]): Active
CC(=O)N1C/C(=C\c2ccccc2)C(=O)/C(=C/c2ccccc2)C1 | 0.28 | 74.3 | 20.8 | Activity (HCT-116 [7]): 45.5%; Activity (HCT-116 [3]): Active; Activity (HCT-116 [4]): Active; Activity (HCT-116 [8]): 30%; Activity (HCT-116 [9]): 2.4%; Activity (HCT-116 [5]): Active; Activity (HCT-116 [10]): 18.3%; Activity (HCT-116 [11]): 3.5%; Activity (HCT-116 [6]): Active
O=C1/C(=C/c2ccc3c(c2)OCO3)CN(C(=O)C(Cl)Cl)C/C1=C\c1ccc2c(c1)OCO2 | 0.32 | 65.9 | 21.1 | 
O=C1/C(=C/c2ccc([N+](=O)[O-])cc2)CN(C(=O)C(Cl)Cl)C/C1=C\c1ccc([N+](=O)[O-])cc1 | 0.03 | 370 | 11.1 | Activity (HCT-116 [3]): Active; Activity (HCT-116 [12]): 3.6%; Activity (HCT-116 [4]): Active; Ratio IC50 (HCT-116 [13]): >100; Activity (HCT-116 [5]): Active; Activity (HCT-116 [14]): 44.4%; Activity (HCT-116 [15]): 2.2%; Activity (HCT-116 [16]): 27.8%; Activity (HCT-116 [17]): 21.4%; Activity (HCT-116 [6]): Active
COc1ccc(/C=C2\CN(C(=O)C(Cl)Cl)C/C(=C\c3ccc(OC)c(OC)c3)C2=O)cc1OC | 0.11 | 96.4 | 10.6 | 
O=C1/C(=C/c2ccc(F)cc2)CN(C(=O)C(Cl)Cl)C/C1=C\c1ccc(F)cc1 | 0.05 | 292 | 14.6 | 
COc1cc(/C=C2\CN(C(=O)C(Cl)Cl)C/C(=C\c3cc(OC)c(OC)c(OC)c3)C2=O)cc(OC)c1OC | 0.04 | 378 | 15.1 | Ratio IC50 (HCT-116 [13]): >100
O=C1/C(=C/c2ccccc2)CN(C(=O)C(Cl)Cl)C/C1=C\c1ccccc1 | 0.23 | 54.4 | 12.5 | Activity (HCT-116 [3]): Active; Activity (HCT-116 [4]): Active; Activity (HCT-116 [18]): 19.9%; Stability [19]: Stable; Activity (HCT-116 [20]): 44.7%; Activity (HCT-116 [5]): Active; Activity (HCT-116 [21]): 1.8%; Activity (HCT-116 [22]): 29.6%; Activity (HCT-116 [23]): 3.6%; Activity (HCT-116 [6]): Active
O=C1/C(=C/c2ccc(Cl)cc2)CN(C(=O)C(Cl)Cl)C/C1=C\c1ccc(Cl)cc1 | 0.13 | 115 | 14.9 | 
Cc1ccc(/C=C2\CN(C(=O)C(Cl)Cl)C/C(=C\c3ccc(C)cc3)C2=O)cc1 | 0.03 | 540 | 16.2 | Ratio IC50 (HCT-116 [13]): >100
O=C1/C(=C/c2ccc(O)cc2)CN(C(=O)C(Cl)Cl)C/C1=C\c1ccc(O)cc1 | 3.85 | 3.58 | 13.8 | 
O=C([O-])C(Cl)Cl.[Na+] [SODIUM DICHLOROACETATE] | 14.8 | 0.85 | 12.5 | 
COc1ccc(/C=C2\CN(C(=O)C(Cl)Cl)C/C(=C\c3ccc(OC)cc3)C2=O)cc1 | 0.27 | 48.9 | 13.2 | 
O=C1/C(=C/c2ccc(Cl)c(Cl)c2)CN(C(=O)C(Cl)Cl)C/C1=C\c1ccc(Cl)c(Cl)c1 | 0.04 | 305 | 12.2 | Ratio IC50 (HCT-116 [13]): >100
O=C1/C(=C/c2ccccc2)CNC/C1=C\c1ccccc1 | 3.5 | 2.7 | 9.45 | 
CN(C)c1ccc(/C=C2\CN(C(=O)C(Cl)Cl)C/C(=C\c3ccc(N(C)C)cc3)C2=O)cc1 | 13.3 | 0.69 | 9.12 | Activity (HCT-116 [3]): inactive; Activity (HCT-116 [4]): Active; Activity (HCT-116 [24]): 4.6%; Activity (HCT-116 [25]): 20.8%; Activity (HCT-116 [5]): inactive; Activity (HCT-116 [26]): 42.9%; Activity (HCT-116 [27]): 29.9%; Activity (HCT-116 [28]): 1.4%; Activity (HCT-116 [6]): Active
O=C1/C(=C/c2ccccc2F)CN(C(=O)C(Cl)Cl)C/C1=C\c1ccccc1F | 0.21 | 52.4 | 11 | 
O=C1/C(=C/c2ccc(F)c(F)c2)CN(C(=O)C(Cl)Cl)C/C1=C\c1ccc(F)c(F)c1 | 0.06 | 185 | 11.1 | 

Reference: ChEMBL document CHEMBL4610019, “Novel hybrid molecules of 3,5-bis(benzylidene)-4-piperidones and dichloroacetic acid which demonstrate potent tumour-selective cytotoxicity” (Bioorg Med Chem Lett, 2020)
